EP1736154A1 (priority 2005, dated 2006)
Starred links: 1 amine or outer side, 2 acyl side, 3 side chain; linkers in the order of their positions; H or OH if unused. Positions of bridges follow the written chain, without caps; N, C: chain ends. Non-standard residues stand in square brackets, D forms with d. Residues, ends and D or L forms follow the SMILES beside them. Adda = CO[C@@H](Cc1ccccc1)[C@@H](C)/C=C(C)/C=C/[C@H](N[*:1])[C@H](C)C(=O)[*:2]; dAsp(3S-Me) = C[C@H](C(=O)[*:3])[C@@H](N[*:1])C(=O)[*:2]; d(γGlu) = O=C(O)[C@@H](CCC(=O)[*:2])N[*:1]; NMeDha = C=C(NC)C(=O)O

Columns and labels:
SMN2 minigene, exon 7 = assay type: cell-based
tau exon 10 minigene = assay type: cell-based, human
SMN protein = SMN protein expression in SMA patient fibroblasts (Western blot with anti-SMN antibody)

SMILES | exon 7 inclusion of SMN2 MG (SMN2 minigene, exon 7) | other results
C[C@@]12C(=O)OC(=O)[C@]1(C)[C@H]1CC[C@@H]2O1 [Cantharidin] | promote the exon 7 inclusion | –
CO[C@H]([C@H](O)CC(=O)[C@@H](C)[C@@H](O)CC[C@@H](C)[C@@H]1O[C@]2(CC[C@@H](C)[C@H](CC[C@H](C)C(C)=O)O2)CC[C@@H]1C)[C@H](OC(=O)C[C@@H](O)C1=C(C)C(=O)OC1=O)C(C)C [Tautomycin] | – | inclusion of tra2-beta1 dependent enhancers, SMN2-minigene (SMN2 minigene, exon 7): promotes inclusion of tra2-beta1 dependent enhancers; tra2-betal-dependent splicing enhancers (SMN2 MG splicing pattern) (SMN2 minigene, exon 7): can be manipulated; inclusion of tra2-beta1 dependent enhancers, tau exon 10 minigene (tau exon 10 minigene): promotes inclusion of tra2-beta1 dependent enhancers; SMN Protein formation in human fibroblasts (SMN protein): promotes SMN Protein formation
CN(N=O)c1cc(O)ccc1O [Dephostatin] | promote the exon 7 inclusion | –
C=C1C(=O)N[C@H](C)C(=O)N[C@@H](CC(C)C)C(=O)N[C@@H](C(=O)O)[C@H](C)C(=O)N[C@@H](CCCNC(=N)N)C(=O)N[C@@H](/C=C/C(C)=C/[C@H](C)[C@H](Cc2ccccc2)OC)[C@H](C)C(=O)N[C@@H](C(=O)O)CCC(=O)N1C [Microcystin ―LR, Microcystin-LR] (R[Adda][d(γGlu)][NMeDha][dA]L[dAsp(3S-Me)]-OH; lactam N-7) | promote the exon 7 inclusion | –
COC[C@@H]([C@H](O)[C@H](O)C(=O)NCC[C@H](C)c1nc(/C=C/C[C@@H]2O[C@]3(C[C@@H](O)[C@@H]2C)O[C@H]([C@H](C[C@H](O)[C@H](C)[C@H](O)[C@H](C)/C=C(C)/C(C)=C/C=C/C(C)=C\C#N)OC)[C@H](OP(=O)(O)O)C3(C)C)co1)N(C)C [Calyculin A] | promote the exon 7 inclusion | –
